Data reported in patent publication US20030206953A1, “Aggregates of spherical multivalent metal alginate microparticles and methods of making them” (priority 1997, published 2003).
Converted amounts (≈) assume the structure as drawn.

What was measured:
physchem = conditions: 20 °C, water, thermodynamic from solid
Procedure: (§1) As used herein, the term “solubility” in accordance with the Japanese Pharmacopoeia (the 13th Amendment) refers to the degree of dissolution of a medicament in a solvent within 30 minutes when 1 g of the medicament is added to the solvent and mixing them with vigorous shaking at intervals of 5 minutes at 20° C.±5° C. In the present specification, the solubility is evaluated in accordance with this method. When the amount (ml) of water required to dissolve 1 g of a medicament is 30 ml or more, the solubility of the medicament represents the grades of “slightly soluble” or “hardly soluble”.

[1] = Dissolution test, paddle method, second solution (artificial intestinal juice, pH 6.8); type: physicochemical; conditions: artificial intestinal juice (second solution, pH 6.8); within two hours; FIG. 3
From the text: As used herein, the term “artificial intestinal juice (the second solution, pH 6.8)” refers to a phosphate buffer of pH 6.8 as described in the Japanese Pharmacopoeia (the 13th Amendment), the section of dissolution test, the second method (paddle method). As used herein, the term “dissolution rate” refers to a value given by dividing the actual elution concentration of a slightly soluble medicament by the calculated elution concentration and expressing the resultant value as a percent. Here, the term “calculated elution concentration” refers to the concentration given when hypothesizing that the entire slightly soluble medicament added to the second solution is dissolved. For example, the calculated elution concentration of a slightly soluble medicament given when 5 g of the medicament is added to 500 ml of the second solution is 10 mg/ml. In this case, when the actual elution concentration is 5 mg/ml, the dissolution rate is 50%.
In general, the dissolution rate of a slightly soluble medicament by itself is slow in the artificial intestinal juice, and the saturated dissolution amount is small. Therefore, the saturated dissolution concentration tends to be smaller than the calculated concentration. […]

[2] = Solubility in water per Japanese Pharmacopoeia (13th Amendment); conditions: 20 °C, thermodynamic from solid
Procedure: as §1

Row | solubility at 30 min (physchem) | dissolution rate [1] | solubility at 30 min [2] | SMILES
1 | < 100 µg/mL | less than 40% |  | COc1ccc2c(c1)c(CC(=O)O)c(C)n2C(=O)c1ccc(Cl)cc1 [Indomethacin, indomethacin]
2 | 13100 µg/mL (≈ 86.7 mM) |  |  | CC(=O)Nc1ccc(O)cc1 [Acetaminophen, acetaminophen]
3 |  |  | < 100 µg/mL | CCOc1ccccc1C(N)=O [Ethenzamide]
4 |  |  | 3630 µg/mL (≈ 20.1 mM) | CC(=O)Oc1ccccc1C(=O)O [Aspirin, aspirin]
